Data: patent US20090163586A1, “Bis-(Sulfonylamino) Derivatives in Therapy 205” (AstraZeneca AB, priority 2007, published 2009)

Molecular target: T1, human mPGES-1 (Homo sapiens, UniProt O14684)
T1 sequence (O14684 1-152): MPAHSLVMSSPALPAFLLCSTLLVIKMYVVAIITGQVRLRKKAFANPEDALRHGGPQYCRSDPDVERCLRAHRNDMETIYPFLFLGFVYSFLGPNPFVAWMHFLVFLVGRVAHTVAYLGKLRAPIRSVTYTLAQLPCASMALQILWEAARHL
Test: Microsomal prostaglandin E synthase biochemical assay
Conditions: microsome preparation containing human mPGES-1; PGH2 10.8 μM, GSH 2.5 mM, pH 6.8; PGE2 by HTRF; average of at least n=2
How it was run: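 Human mPGES-1 microsomes at 2 μg/mL were pre-incubated 15 min with compound (60 μM to 0.002 μM) in 50 mM potassium phosphate pH 6.8 with 2.5 mM GSH. The reaction was started with 10.8 μM PGH2 and stopped after 1 minute with acidic ferric chloride/citrate. PGE2 was quantified by HTRF; IC50 is the mean of at least 2 runs.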

IC50 [nM]	SMILES
1400	Cc1ccc(S(N)(=O)=O)c(NS(=O)(=O)CCc2ccc(Cl)c(Cl)c2)c1 [Example 200]
720	COc1cc(Cl)ccc1CCS(=O)(=O)Nc1cc(C)ccc1S(N)(=O)=O [Example 201, 2-(2-(4-Chloro-2-methoxyphenyl)ethylsulfonamido)-4-methylbenzenesulfonamide]
2900	NS(=O)(=O)c1cc(Cl)ccc1NS(=O)(=O)CCc1ccc(Cl)c(Cl)c1 [Example 202, 5-Chloro-2-(2-(3,4-dichlorophenyl)ethylsulfonamido)benzenesulfonamide]
2100	COc1ncc(-c2cccc(S(=O)(=O)Nc3ccncc3S(N)(=O)=O)c2)cc1Cl [Example 203, 4-(3-(5-Chloro-6-methoxypyridin-3-yl)phenylsulfonamido)pyridine-3-sulfonamide]
620	NS(=O)(=O)c1cnccc1NS(=O)(=O)CCc1ccc(-c2cc3ccccc3o2)cc1 [Example 204, 4-(2-(4-(Benzofuran-2-yl)phenyl)ethylsulfonamido)pyridine-3-sulfonamide]
560	COc1cc(Cl)ccc1CCS(=O)(=O)Nc1ccc(C)cc1S(N)(=O)=O [Example 205, 2-(2-(4-Chloro-2-methoxyphenyl)ethylsulfonamido)-5-methylbenzenesulfonamide]
9100	COc1cc(Cl)ccc1CCS(=O)(=O)Nc1ccncc1S(N)(=O)=O [Example 206, 4-(2-(4-Chloro-2-methoxyphenyl)ethylsulfonamido)pyridine-3-sulfonamide]
97	NS(=O)(=O)c1ccccc1NS(=O)(=O)/C=C/c1ccc(C2=CCCC2)cc1 [Example 207, (E)-2-(2-(4-Cyclopentenylphenyl)vinylsulfonamido)benzenesulfonamide]
55	CC(C)(C)C#Cc1ccc(/C=C/S(=O)(=O)Nc2ccccc2S(N)(=O)=O)cc1 [Example 208, (E)-2-(2-(4-(3,3-Dimethylbut-1-ynyl)phenyl)vinylsulfonamido)benzenesulfonamide]
220	CC(C)(O)C#Cc1ccc(/C=C/S(=O)(=O)Nc2ccccc2S(N)(=O)=O)cc1 [Example 209, (E)-2-(2-(4-(3-Hydroxy-3-methylbut-1-ynyl)phenyl)vinylsulfonamido)benzenesulfonamide]
360	Cc1ccc(NS(=O)(=O)CCc2ccc(C#CC(C)(C)C)cc2)c(S(N)(=O)=O)c1 [Example 210, 2-{2-[4-(3,3-Dimethyl-but-1-ynyl)-phenyl]-ethanesulfonylamino}-5-methyl-benzenesulfonamide]
75	CC(C)(C)C#Cc1ccc(CCS(=O)(=O)Nc2ccc(CO)cc2S(N)(=O)=O)cc1 [Example 211, 2-{2-[4-(3,3-Dimethyl-but-1-ynyl)-phenyl]-ethanesulfonylamino}-5-hydroxymethyl-benzenesulfonamide]
41	NS(=O)(=O)c1cc(CO)ccc1NS(=O)(=O)CCc1ccc(C#CC2CCCC2)cc1 [Example 212, 2-[2-(4-Cyclopentylethynyl-phenyl)-ethanesulfonylamino]-5-hydroxymethyl-benzenesulfonamide]
330	COc1cc(Cl)ccc1CCS(=O)(=O)Nc1ccc(CO)cc1S(N)(=O)=O [Example 213, 2-[2-(4-Chloro-2-methoxy-phenyl)-ethanesulfonylamino]-5-hydroxymethyl-benzenesulfonamide]
1400	CC(C)(C)C#Cc1ccc(CCS(=O)(=O)Nc2ccsc2S(N)(=O)=O)cc1 [Example 214, 3-{2-[4-(3,3-Dimethyl-but-1-ynyl)-phenyl]-ethanesulfonylamino}-thiophene-2-sulfonic acid amide]
740	COc1ncc(-c2cccc(S(=O)(=O)Nc3ccsc3S(N)(=O)=O)c2)cc1Cl [Example 215, 3-[3-(5-Chloro-6-methoxy-pyridin-3-yl)-benzenesulfonylamino]-thiophene-2-sulfonic acid amide]
130	NS(=O)(=O)c1ccccc1NS(=O)(=O)/C=C/c1ccc(OC(F)(F)C(F)F)cc1 [Example 216, (E)-2-(2-(4-(1,1,2,2-tetrafluoroethoxy)phenyl)vinylsulfonamido)benzenesulfonamide]
110	NS(=O)(=O)c1ccccc1NS(=O)(=O)/C=C/c1ccccc1OC(F)F [Example 217, (E)-2-(2-(2-(difluoromethoxy)phenyl)vinylsulfonamido)benzenesulfonamide]
180	NS(=O)(=O)c1ccccc1NS(=O)(=O)/C=C/c1ccc(-c2ccc(C(F)(F)F)cc2)cc1 [Example 218, (E)-2-(2-(4′-(trifluoromethyl)biphenyl-4-yl)vinylsulfonamido)benzenesulfonamide]
950	CC(C)Oc1ccccc1/C=C/S(=O)(=O)Nc1ccccc1S(N)(=O)=O [Example 219, (E)-2-(2-(2-isopropoxyphenyl)vinylsulfonamido)benzenesulfonamide]

IC50 [nM]	SMILES
270	CSc1ccccc1/C=C/S(=O)(=O)Nc1ccccc1S(N)(=O)=O [Example 220, (E)-2-(2-(2-(methylthio)phenyl)vinylsulfonamido)benzenesulfonamide]
420	NS(=O)(=O)c1ccccc1NS(=O)(=O)/C=C/c1ccccc1OC(F)(F)F [Example 221, (E)-2-(2-(2-(trifluoromethoxy)phenyl)vinylsulfonamido)benzenesulfonamide]
380	CCOc1ccccc1/C=C/S(=O)(=O)Nc1ccccc1S(N)(=O)=O [Example 222, 2-[2-(2-ethoxy-phenyl)-ethenesulfonylamino]-benzenesulfonamide]
420	NS(=O)(=O)c1ccccc1NS(=O)(=O)CCc1ccc(OC(F)(F)C(F)F)cc1 [Example 223, 2-(2-(4-(1,1,2,2-tetrafluoroethoxy)phenyl)ethylsulfonamido)benzenesulfonamide]
100	NS(=O)(=O)c1ccccc1NS(=O)(=O)CCc1ccc(-c2ccc(C(F)(F)F)cc2)cc1 [Example 224, 2-(2-(4′-(trifluoromethyl)biphenyl-4-yl)ethylsulfonamido)benzenesulfonamide]
6300	NS(=O)(=O)c1ccccc1NS(=O)(=O)/C=C/c1ccccc1O [Example 225, 2-[2-(2-Hydroxy-phenyl)-ethenesulfonylamino]-benzenesulfonamide]
1300	NS(=O)(=O)c1ccc(Cl)cc1NS(=O)(=O)CCc1ccc(OC(F)F)cc1 [Example 226, 4-Chloro-2-(2-(4-(difluoromethoxy)phenyl)ethylsulfonamido)benzenesulfonamide]
1900	COc1ccccc1CCS(=O)(=O)Nc1cc(Cl)ccc1S(N)(=O)=O [Example 227, 4-Chloro-2-(2-(2-methoxyphenyl)ethylsulfonamido)benzenesulfonamide]
130	COc1cc(Cl)ccc1CCS(=O)(=O)Nc1cc(Cl)ccc1S(N)(=O)=O [Example 228, 4-Chloro-2-(2-(4-chloro-2-methoxyphenyl)ethylsulfonamido)benzenesulfonamide]
5500	NS(=O)(=O)c1cc(F)cc(F)c1NS(=O)(=O)CCc1ccc(Cl)c(Cl)c1 [Example 229, 2-(2-(3,4-Dichlorophenyl)ethylsulfonamido)-3,5-difluorobenzenesulfonamide]
6100	COc1cc(NS(=O)(=O)c2cccc(Cl)c2Cl)c(S(N)(=O)=O)cc1F [Example 230, 2,3-Dichloro-N-(4-fluoro-5-methoxy-2-sulfamoylphenyl)benzenesulfonamide]
130	NS(=O)(=O)c1ccc(Cl)cc1NS(=O)(=O)CCc1ccc(Cl)c(Cl)c1 [Example 231, 4-Chloro-2-(2-(3,4-dichlorophenyl)ethylsulfonamido)benzenesulfonamid]
870	NS(=O)(=O)c1cc(Cl)c(F)cc1NS(=O)(=O)CCc1ccc(Cl)cc1 [Example 232, 5-Chloro-2-(2-(4-chlorophenyl)ethylsulfonamido)-4-fluorobenzenesulfonamide]
150	NS(=O)(=O)c1cc(Cl)c(F)cc1NS(=O)(=O)CCc1ccc(Cl)c(Cl)c1 [Example 233, 5-Chloro-2-(2-(3,4-dichlorophenyl)ethylsulfonamido)-4-fluorobenzenesulfonamide]
6200	NS(=O)(=O)c1c(NS(=O)(=O)CCc2ccc(-c3ccco3)cc2)ccc2c1CCC2 [Example 234, 5-(2-(4-(Furan-2-yl)phenyl)ethylsulfonamido)-2,3-dihydro-1H-indene-4-sulfonamide]
6200	NS(=O)(=O)c1cc2c(cc1NS(=O)(=O)CCc1ccc(-c3ccco3)cc1)CCC2 [Example 235, 6-(2-(4-(Furan-2-yl)phenyl)ethylsulfonamido)-2,3-dihydro-1H-indene-5-sulfonamid]
4600	NS(=O)(=O)c1c(NS(=O)(=O)CCc2ccc(Cl)c(Cl)c2)ccc2c1CCC2 [Example 236, 5-(2-(3,4-Dichlorophenyl)ethylsulfonamido)-2,3-dihydro-1H-indene-4-sulfonamide]
6060	CNS(=O)(=O)c1ccccc1NS(=O)(=O)c1cccc(-c2ccc(Cl)c(Cl)c2)c1 [Example 239, 2-[[3-(3,4-Dichlorophenyl)phenyl]sulfonylamino]-N-methyl-benzenesulfonamide]
31	NS(=O)(=O)c1ccccc1NS(=O)(=O)CCc1ccc(C#Cc2ccc(C(F)(F)F)cc2)nc1 [Example 240, 2-(2-(6-((4-(Trifluoromethyl)phenyl)ethynyl)pyridin-3-yl)ethylsulfonamido)benzenesulfonamide]
